Assay results as given in US11850306B2, “Method for drying hydrogel comprising nanofibrillar cellulose and a dried hydrogel comprising nanofibrillar cellulose” (UPM-KYMMENE CORPORATION, priority 2016, dated 2023).
Several values for one entry are separate records, joined by “and”; a condition that tells them apart may be missing. Identical values can stand only once. Like-named read-outs stand apart in the source and are kept apart here.

Experiments:
[1] = In vitro release studies: diffusion coefficients of model compounds from NFC hydrogels; assay type: physicochemical; conditions: for Diffusion coefficient in NFC-hydrogels: pH 7.4, 37° C.
Procedure: (§1) In vitro drug release studies were performed with modified intrinsic dissolution disc dies filled with 1.07 g of formulations with a constant flat surface area of 1.33 cm^2. Discs were placed in 150 ml amber glass vessels on top of a holder. The vessels were filled to a final volume of 70 ml with pH 7.4 phosphate buffered saline (1×DPBS) and kept at 37° C. under constant magnetic stirring (400 rpm) on top of a multi-position magnetic stirrer IKA RT10 (IKA-Werke GmbH & Co KG, Germany). […] All experiments were done in triplicate.
The flow rate was 0.5 ml/min and the injection volume 5 μl. […] During the gradient run the mobile phase consisted of a mixture of acetonitrile and 15 mM phosphate buffer pH 2 in 25:75 ratio at 0-3 min. After 3 min the mobile phase composition was changed to 75:25 ratio. […] For nadolol, the used column was HSS-T3 1.8 μm (2.1×50 mm) (Waters, USA) at 30° C. The flow rate was 0.5 ml/min and the injection volume 5 μl. […] During the gradient run the mobile phase consisted of a mixture of acetonitrile and 15 mM phosphate buffer pH 2 in 10:90 ratio at 0-3 min. After 3 min the mobile phase composition was changed to 50:50 ratio.
200 μl of samples were pipetted into wells of 96-well OptiPlate plates (PerkinElmer, Finland). Excitation wavelength 490 nm, emission wavelength 520 nm and 12 nm bandwidth were used.
For metronidazole, absorbance was measured in 1 cm cell at 320 nm with 12 nm bandwidth against blank.
Sample and reagent were mixed thoroughly with a multi-channel pipet and incubated for 20 minutes at room temperature before absorbance measurement.
Mathematical equations were used for the modelling of diffusion controlled drug release that take into consideration structure of the device, the ratio of initial drug concentration to drug solubility and the device geometry. The diffusion coefficients were calculated by Higuchi equation (1) for small molecules with a presumption that these systems could be described as monolithic dispersions (Equations 1 and 2 below). For large molecules (1 kDa) equations we used to solve Fick's second law of diffusion and diffusion coefficients (2) with a presumption that these systems could be described as monolithic solutions (FIG. 2).
as §1, with “cm2.” for “cm^2.”

[2] = cited from earlier work
[3] = cited from earlier work; for Solubility in aqueous media (intrinsic solubility): 25° C.
[4] = nitrogen; cited from earlier work
[5] = 3% NFC/exp (PEG6000 and trehalose), before freeze drying
[6] = 6.5% NFC/exp (PEG6000 and trehalose), before freeze drying
[7] = FD 3% NFC/exp, freeze dried and redispersed
[8] = FD 6.5% NFC/exp, freeze dried and redispersed

Molecule | Diffusion coefficients for model compounds in different NFC hydrogels ([1]; 3% NFC, no excipients) | Diffusion coefficients for model compounds in different NFC hydrogels [1, 5] | Diffusion coefficients for model compounds in different NFC hydrogels ([1]; 6.5% NFC, no excipients) | Diffusion coefficients for model compounds in different NFC hydrogels [1, 6] | Diffusion coefficients for model compounds in different NFC hydrogels [1, 7] | Diffusion coefficients for model compounds in different NFC hydrogels [1, 8] | Diffusion coefficient in NFC-hydrogels ([1]; NFC hydrogel 11804-3 (3.2%)) | Diffusion coefficient in NFC-hydrogels ([1]; NFC hydrogel 11814-1 (5.7%)) | Diffusion coefficient in NFC-hydrogels ([1]; NFC hydrogel 11814-3 (5.7%)) | Diffusion coefficient in NFC-hydrogels ([1]; NFC hydrogel 11815-3 (6.8%)) | Charge at pH 7.0 ([2]; pH 7.0) | Charge of compounds at pH 7.4 ([2]; pH 7.4) | Solubility in aqueous media (intrinsic solubility) [3] | Solubility in aqueous media ([3]; pH 7) | Onset degradation temp Td, N2 [4] | Solubility in aqueous media ([3]; condition not given) | pKa/pI [2]
Polyethylene glycol 6000 [PEG 6000] |  |  |  |  |  |  |  |  |  |  |  |  |  |  | 257 °C |  | 
Lysozyme: Lysozyme from hen egg white, 14.7 kDa model compound | 3.53 10^−8 cm^2/s |  | 1.75 10^−8 cm^2/s |  |  |  | 3.53 10^−8 cm^2/s | 1.79 10^−8 cm^2/s | 2.57 10^−8 cm^2/s | 1.75 10^−8 cm^2/s |  |  |  |  |  | >10 mg/mL | 
OC[C@H]1O[C@H](O[C@H]2O[C@H](CO)[C@@H](O)[C@H](O)[C@H]2O)[C@H](O)[C@@H](O)[C@@H]1O [Trehalose, D-(+)-trehalose dihydrate] |  |  |  |  |  |  |  |  |  |  |  |  |  |  | 230 °C |  | 

The next lines start with results.

Diffusion coefficients for model compounds in different NFC hydrogels ([1]; 3% NFC, no excipients) | Diffusion coefficients for model compounds in different NFC hydrogels [1, 5] | Diffusion coefficients for model compounds in different NFC hydrogels ([1]; 6.5% NFC, no excipients) | Diffusion coefficients for model compounds in different NFC hydrogels [1, 6] | Diffusion coefficients for model compounds in different NFC hydrogels [1, 7] | Diffusion coefficients for model compounds in different NFC hydrogels [1, 8] | Diffusion coefficient in NFC-hydrogels ([1]; NFC hydrogel 11804-3 (3.2%)) | Diffusion coefficient in NFC-hydrogels ([1]; NFC hydrogel 11814-1 (5.7%)) | Diffusion coefficient in NFC-hydrogels ([1]; NFC hydrogel 11814-3 (5.7%)) | Diffusion coefficient in NFC-hydrogels ([1]; NFC hydrogel 11815-3 (6.8%)) | Molecule | Charge at pH 7.0 ([2]; pH 7.0) | Charge of compounds at pH 7.4 ([2]; pH 7.4) | Solubility in aqueous media (intrinsic solubility) [3] | Solubility in aqueous media ([3]; pH 7) | Onset degradation temp Td, N2 [4] | Solubility in aqueous media ([3]; condition not given) | pKa/pI [2]
152.62 10^−8 cm^2/s | 147.15 10^−8 cm^2/s | 141.86 10^−8 cm^2/s | 141.20 10^−8 cm^2/s | 129.97 10^−8 cm^2/s | 124.44 10^−8 cm^2/s | 152.62 10^−8 cm^2/s | 131.41 10^−8 cm^2/s | 148.23 10^−8 cm^2/s | 141.86 10^−8 cm^2/s | CC(C(=O)O)c1cccc(C(=O)c2ccccc2)c1 (stereo not drawn) [Ketoprofen] |  |  |  |  |  |  | 
716.99 10^−8 cm^2/s | 657.41 10^−8 cm^2/s | 617.51 10^−8 cm^2/s | 617.16 10^−8 cm^2/s | 699.10 10^−8 cm^2/s | 660.18 10^−8 cm^2/s | 716.99 10^−8 cm^2/s | 609.51 10^−8 cm^2/s | 551.09 10^−8 cm^2/s | 617.51 10^−8 cm^2/s | Cc1ncc([N+](=O)[O-])n1CCO [Metronidazole] | ø | Metronidazole (ø) | 10.5 (25° C.), mg/ml and 10.5 mg/ml | 10.5 (pH 7) mg/ml | 160 °C |  | 
286.24 10^−8 cm^2/s | 292.92 10^−8 cm^2/s | 230.62 10^−8 cm^2/s | 245.04 10^−8 cm^2/s | 296.36 10^−8 cm^2/s | 267.21 10^−8 cm^2/s | 286.24 10^−8 cm^2/s | 273.21 10^−8 cm^2/s | 287.50 10^−8 cm^2/s | 230.62 10^−8 cm^2/s | CC(C)(C)NCC(O)COc1cccc2c1CC(O)C(O)C2 (stereo not drawn) [Nadolol] |  |  | 8.3 (25° C.), mg/ml | 8.3 (pH 7) mg/ml | 196.2 °C |  | 9.28
